According to US20200054633A1 (priority 2017, published 2020):

Settings: 600 mg, OST placebo; N=74
Text: This study followed a randomized, double-blind, placebo-controlled, parallel-group, multicenter design.
Analysis set for safety: Safety Set included all subjects who received at least 1 dose of study drug.

O=C(O)[C@H]1C2CCC(CC2)[C@@H]1Nc1nc(-c2c[nH]c3ncc(F)cc23)ncc1F [Compound (1), Pimodivir]
Any TEAE: 39 (52.7%) | Any TEAE at least possibly related to study medication: 26 (35.1%) | Any TEAE leading to a temporary stop of study medication: 2 (2.7%) | Any TEAE leading to permanent stop of study medication: 3 (4.1%) | Any TEAE with fatal outcome: 0 | Grade 3 TEAE: Anaemia: 0 | Grade 3 TEAE: Balance disorder: 0 | Grade 3 TEAE: Blood and lymphatic system disorders: 1 (1.4%) | Grade 3 TEAE: Blood creatine phosphokinase increased: 1 (1.4%) | Grade 3 TEAE: Bronchitis: 0 | Grade 3 TEAE: Constipation: 1 (1.4%) | Grade 3 TEAE: Diarrhoea: 1 (1.4%) | Grade 3 TEAE: Fatigue: 0 | Grade 3 TEAE: Gastrointestinal disorders: 2 (2.7%) | Grade 3 TEAE: General disorders and administration site conditions: 0 | Grade 3 TEAE: Hyperkalaemia: 1 (1.4%) | Grade 3 TEAE: Infections and infestations: 0 | Grade 3 TEAE: Investigations: 1 (1.4%) | Grade 3 TEAE: Lymphopenia: 1 (1.4%) | Grade 3 TEAE: Metabolism and nutrition disorders: 1 (1.4%) | Grade 3 TEAE: Nausea: 0 | Grade 3 TEAE: Nervous system disorders: 0 | Grade 3 TEAE: Neutropenia: 0 | Grade 3 TEAE: Neutrophil count decreased: 0 | Grade 3 TEAE: Protein urine present: 0 | Grade 3 TEAE: Syncope: 0 | Grade 3 TEAE: Thrombocytopenia: 0 | Grade 3 TEAE: Vomiting: 0 | TEAE: Abdominal discomfort: 1 (1.4%) n (%) | TEAE: Abdominal pain: 0 n (%) | TEAE: Abdominal pain upper: 2 (2.7%) n (%) | TEAE: Abdominal tenderness: 0 n (%) | TEAE: Alanine aminotransferase increased: 2 (2.7%) n (%) | TEAE: All events: 39 (52.7%) n (%) | TEAE: Anaemia: 0 n (%) | TEAE: Aphthous stomatitis: 0 n (%) | TEAE: Aspartate aminotransferase increased: 1 (1.4%) n (%) | TEAE: Atrioventricular block first degree: 0 n (%) | TEAE: Back pain: 1 (1.4%) n (%) | TEAE: Bacterial vaginosis: 0 n (%) | TEAE: Balance disorder: 0 n (%) | TEAE: Blood and lymphatic system disorders: 3 (4.1%) n (%) | TEAE: Blood bicarbonate decreased: 0 n (%) | TEAE: Blood bilirubin decreased: 0 n (%) | TEAE: Blood bilirubin increased: 0 n (%) | TEAE: Blood creatine phosphokinase increased: 1 (1.4%) n (%) | TEAE: Blood creatinine increased: 0 n (%) | TEAE: Blood glucose increased: 1 (1.4%) n (%) | TEAE: Blood potassium increased: 1 (1.4%) n (%) | TEAE: Blood pressure diastolic increased: 1 (1.4%) n (%) | TEAE: Blood urine: 0 n (%) | TEAE: Bradycardia: 1 (1.4%) n (%) | TEAE: Bronchitis: 0 n (%) | TEAE: Cardiac disorders: 1 (1.4%) n (%) | TEAE: Constipation: 1 (1.4%) n (%) | TEAE: Contusion: 1 (1.4%) n (%) | TEAE: Cough: 1 (1.4%) n (%) | TEAE: Decreased appetite: 0 n (%) | TEAE: Dehydration: 0 n (%) | TEAE: Diabetes mellitus: 0 n (%) | TEAE: Diarrhoea: 20 (27.0%) n (%) | TEAE: Dizziness: 2 (2.7%) n (%) | TEAE: Dry mouth: 1 (1.4%) n (%) | TEAE: Dry skin: 1 (1.4%) n (%) | TEAE: Dysgeusia: 0 n (%) | TEAE: Dyspepsia: 0 n (%) | TEAE: Dyspnoea: 0 n (%) | TEAE: Dysuria: 0 n (%) | TEAE: Ear and labyrinth disorders: 0 n (%) | TEAE: Ear discomfort: 0 n (%) | TEAE: Ecchymosis: 0 n (%) | TEAE: Electrocardiogram ST segment depression: 0 n (%) | TEAE: Enteritis: 0 n (%) | TEAE: Fatigue: 0 n (%) | TEAE: Fungal infection: 0 n (%) | TEAE: Gamma-glutamyltransferase increased: 1 (1.4%) n (%) | TEAE: Gastrointestinal disorders: 22 (29.7%) n (%) | TEAE: General disorders and administration site conditions: 0 n (%) | TEAE: Glomerular filtration rate decreased: 1 (1.4%) n (%) | TEAE: Gout: 0 n (%) | TEAE: HIV antibody positive: 0 n (%) | TEAE: HIV test positive: 0 n (%) | TEAE: Haematuria: 0 n (%) | TEAE: Haemoglobin decreased: 0 n (%) | TEAE: Haemoglobin increased: 0 n (%) | TEAE: Headache: 1 (1.4%) n (%) | TEAE: Hepatic enzyme increased: 1 (1.4%) n (%) | TEAE: Hepatitis C: 0 n (%) | TEAE: Herpes simplex: 0 n (%)
